Read-outs that look alike come from different tables or passages of the source.
Biological target: Human DDB1 (Homo sapiens (Human), UniProt Q16531)
Assay: Surface plasmon resonance (SPR) binding assay to immobilized His-DDB1
Details: SPR
In short: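 Baculovirus-expressed His-DDB1 (High5 cells) amine-coupled to 11,000–13,000 RU on a CM5 chip; compounds injected in multi-cycle format without regeneration at 25° C in HBS-EP pH 7.4 (120 s association/dissociation). Double-referenced, solvent-corrected data fit to steady-state affinity model for KD.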

[1] = steady state affinity model, 25° C., read-out: Binding (DDB1 binder activities, Kd)
[2] = DDB1 binding moieties with linkers and/or target protein binding moiety, read-out: Binding (Kd)

Human DDB1, sequence (Q16531 whole entry): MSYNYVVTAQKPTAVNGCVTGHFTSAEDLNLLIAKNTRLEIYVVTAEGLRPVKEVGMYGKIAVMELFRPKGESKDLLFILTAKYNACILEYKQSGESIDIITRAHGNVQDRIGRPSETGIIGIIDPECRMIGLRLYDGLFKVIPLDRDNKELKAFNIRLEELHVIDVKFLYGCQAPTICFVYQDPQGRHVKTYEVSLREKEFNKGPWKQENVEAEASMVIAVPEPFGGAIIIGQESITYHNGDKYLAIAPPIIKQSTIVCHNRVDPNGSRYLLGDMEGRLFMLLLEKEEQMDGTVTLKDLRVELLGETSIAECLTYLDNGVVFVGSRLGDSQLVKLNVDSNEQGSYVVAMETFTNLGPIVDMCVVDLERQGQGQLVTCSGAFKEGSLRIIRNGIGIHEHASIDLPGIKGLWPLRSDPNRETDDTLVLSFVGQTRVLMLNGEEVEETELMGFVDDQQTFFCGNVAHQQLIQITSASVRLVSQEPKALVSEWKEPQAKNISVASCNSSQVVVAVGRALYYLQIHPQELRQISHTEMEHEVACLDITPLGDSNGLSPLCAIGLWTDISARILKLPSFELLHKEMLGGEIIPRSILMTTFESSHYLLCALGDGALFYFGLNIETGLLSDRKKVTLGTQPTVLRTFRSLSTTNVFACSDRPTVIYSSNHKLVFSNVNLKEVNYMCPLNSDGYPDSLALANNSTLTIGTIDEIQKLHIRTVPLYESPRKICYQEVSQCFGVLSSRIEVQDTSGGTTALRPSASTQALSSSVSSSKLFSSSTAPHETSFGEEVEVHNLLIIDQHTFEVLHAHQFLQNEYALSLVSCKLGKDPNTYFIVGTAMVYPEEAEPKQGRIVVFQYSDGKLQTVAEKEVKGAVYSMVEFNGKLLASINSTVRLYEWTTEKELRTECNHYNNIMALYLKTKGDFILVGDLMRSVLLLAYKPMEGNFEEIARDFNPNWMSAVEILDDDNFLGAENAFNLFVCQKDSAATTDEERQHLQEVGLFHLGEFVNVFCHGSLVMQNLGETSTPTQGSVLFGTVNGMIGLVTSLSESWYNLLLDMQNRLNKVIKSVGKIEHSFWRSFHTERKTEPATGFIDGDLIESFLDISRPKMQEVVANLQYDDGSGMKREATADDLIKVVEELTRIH

| Structure (SMILES) | Kd [1] [µM] | Kd [2] [µM] |
| --- | --- | --- |
| CC(=O)Nc1ccccc1C(=O)Nc1nccs1 [B-41, 2-Acetamido-N-(thiazol-2-yl)benzamide] | > 100 | – |
| Cc1cc(-c2ccccc2)ccc1C(=O)Nc1ncc([N+](=O)[O-])s1 [B-153, 3-Methyl-N-(5-nitrothiazol-2-yl)-[1,1′-biphenyl]-4-carboxamide] | 20 to 100 | – |
| CC(=O)Nc1cc(NCCCCCCCCCCNC(=O)C[C@@H]2N=C(c3ccc(Cl)cc3)c3c(sc(C)c3C)-n3c(C)nnc32)ccc1C(=O)Nc1nc(C)c([N+](=O)[O-])s1 [D-31, (S)-2-Acetamido-4-((10-(2-(4-(4-chlorophenyl)-2,3,9-trimethyl-6H-thieno[3,2-f][1,2,4]triazolo[4,3-a][1,4]diazepin-6-yl)acetamido)decyl)amino)-N-(4-methyl-5-nitrothiazol-2-yl)benzamide] | – | 20 to 100 |
| CC(=O)Nc1cc(NCCCCCCCNC(=O)C[C@@H]2N=C(c3ccc(Cl)cc3)c3c(sc(C)c3C)-n3c(C)nnc32)ccc1C(=O)Nc1nc(C)c([N+](=O)[O-])s1 [D-29, (S)-2-Acetamido-4-((7-(2-(4-(4-chlorophenyl)-2,3,9-trimethyl-6H-thieno[3,2-f][1,2,4]triazolo[4,3-a][1,4]diazepin-6-yl)acetamido)heptyl)amino)-N-(4-methyl-5-nitrothiazol-2-yl)benzamide] | – | 20 to 100 |
| CCCNC(=O)c1cccc(C(=O)Nc2ncc([N+](=O)[O-])s2)c1NC(C)=O [B-145, 2-Acetamido-N^1-(5-nitrothiazol-2-yl)-N^3-propylisophthalamide] | 20 to 100 | – |
| O=C(Nc1ncc([N+](=O)[O-])s1)c1ccccc1O [B-2, 2-hydroxy-N-(5-nitrothiazol-2-yl)benzamide] | 20 to 100 | – |
| CC(=O)Nc1cc(C(=O)NCCOCCOCCOCCN)ccc1C(=O)Nc1nc(C)c([N+](=O)[O-])s1 [BL-5, 2-acetamido-N^4-(2-(2-(2-(2-aminoethoxy)ethoxy)ethoxy)ethyl)-N^1-(4-methyl-5-nitrothiazol-2-yl)terephthalamide] | – | 20 to 100 |
| CC(=O)Nc1ccccc1C(=O)Nc1nc(-c2ccccc2)cs1 [B-46, 2-acetamido-N-(4-phenylthiazol-2-yl)benzamide] | 20 to 100 | – |
| CCCCNc1ccc(C(=O)Nc2ncc(-c3ccccc3)s2)c(-c2ccccc2)c1 [B-120, 5-(Butylamino)-N-(5-phenylthiazol-2-yl)-[1,1′-biphenyl]-2-carboxamide] | 20 to 100 | – |
| COc1ccc(C(=O)Nc2ncc([N+](=O)[O-])s2)c(C)c1 [B-156, 4-Methoxy-2-methyl-N-(5-nitrothiazol-2-yl)benzamide] | > 100 | – |
| CCOc1cc(NC2CCOC2)ccc1C(=O)Nc1ncc([N+](=O)[O-])s1 (stereo not drawn) [B-97, 2-Ethoxy-N-(5-nitrothiazol-2-yl)-4-((tetrahydrofuran-3-yl)amino)benzamide] | > 100 | – |
| CC(=O)Nc1cc(NCCOCCOCCOCCOCCNC(=O)C[C@@H]2N=C(c3ccc(Cl)cc3)c3c(sc(C)c3C)-n3c(C)nnc32)ccc1C(=O)Nc1nc(C)c([N+](=O)[O-])s1 [D-35, (S)-2-Acetamido-4-((1-(4-(4-chlorophenyl)-2,3,9-trimethyl-6H-thieno[3,2-f][1,2,4]triazolo[4,3-a][1,4]diazepin-6-yl)-2-oxo-6,9,12,15-tetraoxa-3-azaheptadecan-17-yl)amino)-N-(4-methyl-5-nitrothiazol-2-yl)benzamide] | – | 20 to 100 |
| CN(C)c1ccccc1C(=O)Nc1ncc([N+](=O)[O-])s1 [B-69, 2-(dimethylamino)-N-(5-nitrothiazol-2-yl)benzamide] | > 100 | – |
| CC(=O)Nc1ccccc1C(=O)Nc1ccncc1 [B-121, 2-Acetamido-N-(pyridin-4-yl)benzamide] | 20 to 100 | – |
| CCCCNc1ccc(C(=O)Nc2ccc([N+](=O)[O-])s2)c(-c2ccccc2)c1 [B-135, 5-(Butylamino)-N-(5-nitrothiophen-2-yl)-[1,1′-biphenyl]-2-carboxamide] | 20 to 100 | – |
| CC(=O)Nc1cc(NCCOCCNC(=O)C[C@@H]2N=C(c3ccc(Cl)cc3)c3c(sc(C)c3C)-n3c(C)nnc32)ccc1C(=O)Nc1nc(C)c([N+](=O)[O-])s1 [D-32, (S)-2-Acetamido-4-((2-(2-(2-(4-(4-chlorophenyl)-2,3,9-trimethyl-6H-thieno[3,2-f][1,2,4]triazolo[4,3-a][1,4]diazepin-6-yl)acetamido)ethoxy)ethyl)amino)-N-(4-methyl-5-nitrothiazol-2-yl)benzamide] | – | 20 to 100 |
| CC(=O)Nc1ccccc1C(=O)Nc1ccc(Br)cn1 [B-55, 2-Acetamido-N-(5-bromopyridin-2-yl)benzamide] | 20 to 100 | – |
| CN(CCc1ccccc1)C1CCCN(C(=O)CCc2nc3ccccc3[nH]2)C1 (stereo not drawn) [B-139, 3-(1H-benzo[d]imidazol-2-yl)-1-(3-(methyl(phenethyl)amino)piperidin-1-yl)propan-1-one] | < 20 | – |
| CCCC(=O)Nc1ccc(OC(C)=O)c(C(=O)Nc2ncc([N+](=O)[O-])s2)c1 [B-22, 4-Butyramido-2-((5-nitrothiazol-2-yl)carbamoyl)phenyl acetate] | 20 to 100 | – |
| O=C(Nc1ncc([N+](=O)[O-])s1)c1ccccc1NC(=O)C1CC1 [B-62, 2-(Cyclopropanecarboxamido)-N-(5-nitrothiazol-2-yl)benzamide] | 20 to 100 | – |
| O=C(Nc1ncc(Cl)s1)c1ccccc1O [B-10] | 20 to 100 | – |
| CCCCNc1cccc(OC(C)=O)c1C(=O)Nc1ncc([N+](=O)[O-])s1 [B-19, 3-(Butylamino)-2-((5-nitrothiazol-2-yl)carbamoyl)phenyl acetate] | 20 to 100 | – |
| CCCCNc1ccc(OCC)c(C(=O)Nc2ncc([N+](=O)[O-])s2)c1 [B-155, 5-(Butylamino)-2-ethoxy-N-(5-nitrothiazol-2-yl)benzamide] | > 100 | – |
| O=C(Nc1ncc([N+](=O)[O-])s1)c1ccccc1OC1CC1 [B-75, 2-Cyclopropoxy-N-(5-nitrothiazol-2-yl)benzamide] | > 100 | – |
| CCNc1cccc(C)c1C(=O)Nc1ncc([N+](=O)[O-])s1 [B-169, 2-(Ethylamino)-6-methyl-N-(5-nitrothiazol-2-yl)benzamide] | 20 to 100 | – |
| CC(=O)Oc1ccccc1C(=O)Nc1ncc([N+](=O)[O-])s1 [B-1, 2-((5-nitrothiazol-2-yl)carbamoyl)phenylacetate] | 20 to 100 | – |
| CC(=O)Nc1ccccc1C(=O)Nc1nc(C)c(Cl)s1 [B-40, 2-acetamido-N-(5-chloro-4-methylthiazol-2-yl)benzamide] | 20 to 100 | – |
| Cc1nc(NC(=O)c2ccccc2NC(=O)CCOCCOCCOCCN)sc1[N+](=O)[O-] [BL-2, 2-(3-(2-(2-(2-Aminoethoxy)ethoxy)ethoxy)propanamido)-N-(4-methyl-5-nitrothiazol-2-yl)benzamide] | – | 20 to 100 |

The next lines start with the values.

| Kd [1] [µM] | Kd [2] [µM] | Structure (SMILES) |
| --- | --- | --- |
| 20 to 100 | – | Nc1nc(N2CCOCC2)nc2c1CCN(Cc1cccc3cccnc13)C2 [B-136, 2-morpholino-7-(quinolin-8-ylmethyl)-5,6,7,8-tetrahydropyrido[3,4-d]pyrimidin-4-amine] |
| 20 to 100 | – | O=C(Nc1ncc([N+](=O)[O-])s1)c1ccccc1C1CC1 [B-85, 2-cyclopropyl-N-(5-nitrothiazol-2-yl)benzamide] |
| 20 to 100 | – | CNS(=O)(=O)c1ccccc1C(=O)Nc1ncc([N+](=O)[O-])s1 [B-81, 2-(N-Methylsulfamoyl)-N-(5-nitrothiazol-2-yl)benzamide] |
| 20 to 100 | – | CCCCNc1ccc(C(=O)Nc2ncc([N+](=O)[O-])s2)c(OCC)c1 [B-160, 4-(Butylamino)-2-ethoxy-N-(5-nitrothiazol-2-yl)benzamide] |
| < 20 | – | CC(=O)Nc1ccccc1C(=O)Nc1ccccn1 [B-123, 2-Acetamido-N-(pyridin-2-yl)benzamide] |
| 20 to 100 | – | CCc1ccc(C(=O)Nc2ncc([N+](=O)[O-])s2)c(C)c1 [B-158, 4-Ethyl-2-methyl-N-(5-nitrothiazol-2-yl)benzamide] |
| 20 to 100 | – | CCCCNc1ccc(C)c(C(=O)Nc2ncc([N+](=O)[O-])s2)c1 [B-148, 5-(Butylamino)-2-methyl-N-(5-nitrothiazol-2-yl)benzamide] |
| < 20 | – | O=C(Nc1ncc([N+](=O)[O-])s1)c1ccccc1-c1ccccc1 [B-86, N-(5-Nitrothiazol-2-yl)-[1,1′-biphenyl]-2-carboxamide] |
| 20 to 100 | – | O=C(Nc1cccc(N2CCOC2=O)c1)c1ccccc1C1CCCN1 (stereo not drawn) [B-140, N-(3-(2-oxooxazolidin-3-yl)phenyl)-2-(pyrrolidin-2-yl)benzamide] |
| < 20 | – | CC(=O)Nc1ccccc1C(=O)Nc1nc(-c2ccccc2)c([N+](=O)[O-])s1 [B-34, 2-acetamido-N-(5-nitro-4-phenylthiazol-2-yl)benzamide] |
| < 20 | – | CCCCNc1ccc(C(=O)Nc2nc(C(F)(F)F)c([N+](=O)[O-])s2)c(-c2ccccc2)c1 [B-114, 5-(Butylamino)-N-(5-nitro-4-(trifluoromethyl)thiazol-2-yl)-[1,1′-biphenyl]-2-carboxamide] |
| < 20 | – | CC(C)Oc1ccccc1C(=O)Nc1ncc([N+](=O)[O-])s1 [B-74, 2-Isopropoxy-N-(5-nitrothiazol-2-yl)benzamide] |
| < 20 | – | CC(=O)Nc1ccccc1C(=O)Nc1nc(C(C)C)c([N+](=O)[O-])s1 [B-33, 2-Acetamido-N-(4-isopropyl-5-nitrothiazol-2-yl)benzamide] |
| < 20 | – | Cc1cc(Br)ccc1C(=O)Nc1ncc([N+](=O)[O-])s1 [B-152, 4-Bromo-2-methyl-N-(5-nitrothiazol-2-yl)benzamide] |
| < 20 | – | CNC(=O)Nc1ccccc1C(=O)Nc1ncc([N+](=O)[O-])s1 [B-66, 2-(3-methylureido)-N-(5-nitrothiazol-2-yl)benzamide] |
| < 20 | – | CC(=O)Nc1ccccc1C(=O)Nc1ncc(-c2ccccc2)s1 [B-45, 2-acetamido-N-(5-phenylthiazol-2-yl)benzamide] |
| < 20 | – | CCCCNc1ccc(C(=O)Nc2nc(Cl)c([N+](=O)[O-])s2)c(-c2ccccc2)c1 [B-112, 5-(Butylamino)-N-(4-chloro-5-nitrothiazol-2-yl)-[1,1′-biphenyl]-2-carboxamide] |

Source: patent publication US20240066136A1, “MODIFIED PROTEINS AND PROTEIN DEGRADERS” (Cullgen (Shanghai), Inc., priority 2020, published 2024)
